According to BigSolDB 2.1:

COc1cc2c(cc1OC)C(=O)C(CC1CCN(Cc3ccccc3)CC1)C2.Cl (stereo not drawn)
solubility (mole fraction)
Details | in DMF | in ethanol | in methanol | in n-propanol
278.15 K | 0.00119 | 0.000291 | 0.00167 | 0.000112
283.15 K | 0.00135 | 0.000379 | 0.00222 | 0.000153
288.15 K | 0.00152 | 0.000484 | 0.00287 | 0.000214
293.15 K | 0.00173 | 0.000609 | 0.00375 | 0.000301
298.15 K | 0.00196 | 0.000768 | 0.00483 | 0.000404
303.15 K | 0.00222 | 0.000951 | 0.00636 | 0.000543
308.15 K | 0.00251 | 0.00118 | 0.00803 | 0.000743
313.15 K | 0.00286 | 0.00145 | 0.0105 | 0.00102
318.15 K | 0.00325 | 0.00177 | 0.0133 | 0.00133
323.15 K | 0.00368 | 0.00215 | 0.017 | 0.0018
328.15 K | 0.00418 | 0.00259 | 0.0216 | 0.00241
333.15 K | 0.00476 | 0.00308 | 0.0277 | 0.00321
